Patent US6355799B1, “Substituted benzene compounds, process for their preparation, and herbicidal and defoliant compositions containing them” (ISK Americas Incorporated, priority 1997, dated 2002)

How the values were obtained:
Format in all cases: in vivo
[1] = test system: redroot pigweed (Amaranthus retroflexus, AMARE); test: Pre-emerge test, greenhouse herbicide activity screening; details: pre-emerge, 14 days after application, scale 0-100
Procedure, shortened: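 Herbicidal damage is scored 0 (none) to 100 (complete plant death) two weeks after a simulated field spray. Rates span 15–1000 g ai/ha, delivered in acetone at 187 l/ha. For post-emergence treatments, plants have 2–3 leaves and the spray carries 0.25% v/v non-ionic surfactant.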

[2] = test system: lambsquarters (Chenopodium album, CHEAL); test: as above; details: pre-emerge, 14 days after application, scale 0-100
Procedure, shortened: (§1)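 Rating: 0–100 visual injury, 14 DAA. Application: acetone, 187 l/ha, 15–1000 g ai/ha, flat-fan track sprayer with nozzle 40–45 cm above soil or canopy. Post-emerge runs used 0.25% v/v surfactant on 2–3 leaf plants.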

[3] = test system: sicklepod (Cassia obtusifolia, CASOB); test: as above; details: pre-emerge, 14 days after application, scale 0-100
Procedure, shortened: as §1

[4] = test system: johnsongrass (Sorghum halepense, SORHA); test: as above; details: pre-emerge, 14 days after application, scale 0-100
Procedure, shortened: as §1

[5] = test system: barnyardgrass (Echinochloa crus-galli, ECHCG); test: as above; details: pre-emerge, 14 days after application, scale 0-100
Procedure, shortened: as §1

[6] = test system: velvetleaf (Abutilon theophrasti, ABUTH); test: as above; details: pre-emerge, 14 days after application, scale 0-100
Procedure, shortened: as §1

[7] = test system: large crabgrass (Digitaria sanguinalis, DIGSA); test: as above; details: pre-emerge, 14 days after application, scale 0-100
Procedure, shortened: as §1

[8] = test system: green foxtail (Setaria viridis, SETVI); test: as above; details: pre-emerge, 14 days after application, scale 0-100
Procedure, shortened: as §1

[9] = test system: common ragweed (Ambrosia artemisizfolia L., AMBEL); test: as above; details: pre-emerge, 14 days after application, scale 0-100
Procedure, shortened: as §1

[10] = test system: ivyleaf morningglory (Ipomoea hederacea, IPOHE); test: as above; details: pre-emerge, 14 days after application, scale 0-100
Procedure, shortened: as §1

[11] = test system: lambsquarters (Chenopodium album, CHEAL); test: Post-emerge test, greenhouse herbicide activity screening; details: post-emerge, 14 days after application, rating scale 0-100
Procedure, shortened: (§2)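 Compounds in acetone were track-sprayed at 15-1000 g ai/ha (187 l/ha) on sandy loam pots: pre-emerge one day after seeding, post-emerge at 2-3 leaf stage with 0.25% v/v non-ionic surfactant. Phytotoxicity was rated 14 days later on a 0 (no damage) to 100 (complete death) scale.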

[12] = test system: sicklepod (Cassia obtusifolia, CASOB); test: as above; details: post-emerge, 14 days after application, rating scale 0-100
Procedure, shortened: as §2

[13] = test system: redroot pigweed (Amaranthus retroflexus, AMARE); test: as above; details: post-emerge, 14 days after application, rating scale 0-100
Procedure, shortened: as §2

[14] = test system: johnsongrass (Sorghum halepense, SORHA); test: as above; details: post-emerge, 14 days after application, rating scale 0-100
Procedure, shortened: as §2

[15] = test system: barnyardgrass (Echinochloa crus-galli, ECHCG); test: as above; details: post-emerge, 14 days after application, rating scale 0-100
Procedure, shortened: as §2

[16] = test system: velvetleaf (Abutilon theophrasti, ABUTH); test: as above; details: post-emerge, 14 days after application, rating scale 0-100
Procedure, shortened: as §2

[17] = test system: large crabgrass (Digitaria sanguinalis, DIGSA); test: as above; details: post-emerge, 14 days after application, rating scale 0-100
Procedure, shortened: as §2

[18] = test system: green foxtail (Setaria viridis, SETVI); test: as above; details: post-emerge, 14 days after application, rating scale 0-100
Procedure, shortened: as §2

[19] = test system: ivyleaf morningglory (Ipomoea hederacea, IPOHE); test: as above; details: post-emerge, 14 days after application, rating scale 0-100
Procedure, shortened: as §2

[20] = test system: upland rice (Oryza sp., var. Tebonnet, RICE); test: Pre-emerge test, crop safety; details: pre-emerge, 14 days after application, scale 0-100
Procedure, shortened: (§3)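 Sandy loam pots; pre-emerge: sown 1 d pre-spray, surface-watered after, then bottom-watered. Post-emerge: sown 8–21 d before, 2–3 leaf stage, + 0.25% v/v NIS, bottom-watered. Acetone, 187 l/ha track spray, 15–1000 g ai/ha. 0–100 injury score, day 14.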

[21] = test system: field corn (Zea mays L., var. Dekalb 535, CORN); test: Pre-emerge test, crop safety; details: pre-emerge, 14 days after application, scale 0-100
Procedure, shortened: as §3

[22] = test system: upland rice (Oryza sp., var. Tebonnet, RICE); test: Post-emerge test, crop safety; details: post-emerge, 14 days after application, rating scale 0-100
Procedure, shortened: (§4)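 Plants grown in 10 cm pots of sandy loam mix received acetone-dissolved compounds through a moving flat-fan nozzle. Doses ranged from 15 to 1000 g ai/ha. Pre-emerge pots were seeded one day earlier, post-emerge pots 8–21 days earlier. Fourteen days on, each pot was graded 0–100 for damage.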

[23] = test system: field corn (Zea mays L., var. Dekalb 535, CORN); test: Post-emerge test, crop safety; details: post-emerge, 14 days after application, rating scale 0-100
Procedure, shortened: as §4

Cc1c(Cl)cc(F)c(-n2c(=O)cc(C(F)(F)F)n(C)c2=O)c1NC(=O)C=Cc1ccccc1 [2-123]
phytotoxicity rating AMARE ([1]; 63 g ai/ha): 100 | phytotoxicity rating AMARE ([1]; 250 g ai/ha): 100 | phytotoxicity rating CHEAL ([2]; 63 g ai/ha): 100 | phytotoxicity rating CHEAL ([2]; 250 g ai/ha): 100 | phytotoxicity rating CASOB ([3]; 63 g ai/ha): 60 | phytotoxicity rating CASOB ([3]; 250 g ai/ha): 90 | phytotoxicity rating SORHA ([4]; 63 g ai/ha): 30 | phytotoxicity rating SORHA ([4]; 250 g ai/ha): 70 | phytotoxicity rating ECHCG ([5]; 63 g ai/ha): 40 | phytotoxicity rating ECHCG ([5]; 250 g ai/ha): 80 | phytotoxicity rating ABUTH ([6]; 63 g ai/ha): 100 | phytotoxicity rating ABUTH ([6]; 250 g ai/ha): 100 | phytotoxicity rating DIGSA ([7]; 63 g ai/ha): 60 | phytotoxicity rating DIGSA ([7]; 250 g ai/ha): 100 | phytotoxicity rating SETVI ([8]; 63 g ai/ha): 80 | phytotoxicity rating SETVI ([8]; 250 g ai/ha): 100 | phytotoxicity rating AMBEL ([9]; 63 g ai/ha): 95 | phytotoxicity rating AMBEL ([9]; 250 g ai/ha): 100 | phytotoxicity rating IPOHE ([10]; 63 g ai/ha): 100 | phytotoxicity rating IPOHE ([10]; 250 g ai/ha): 100 | phytotoxicity rating CHEAL ([11]; 63 g ai/ha): 100 | phytotoxicity rating CHEAL ([11]; 250 g ai/ha): 100 | phytotoxicity rating CASOB ([12]; 63 g ai/ha): 100 | phytotoxicity rating CASOB ([12]; 250 g ai/ha): 100 | phytotoxicity rating AMARE ([13]; 63 g ai/ha): 100 | phytotoxicity rating AMARE ([13]; 250 g ai/ha): 100 | phytotoxicity rating SORHA ([14]; 63 g ai/ha): 10 | phytotoxicity rating SORHA ([14]; 250 g ai/ha): 30 | phytotoxicity rating ECHCG ([15]; 63 g ai/ha): 10 | phytotoxicity rating ECHCG ([15]; 250 g ai/ha): 20 | phytotoxicity rating ABUTH ([16]; 63 g ai/ha): 100 | phytotoxicity rating ABUTH ([16]; 250 g ai/ha): 100 | phytotoxicity rating DIGSA ([17]; 63 g ai/ha): 10 | phytotoxicity rating DIGSA ([17]; 250 g ai/ha): 30 | phytotoxicity rating SETVI ([18]; 63 g ai/ha): 20 | phytotoxicity rating SETVI ([18]; 250 g ai/ha): 30 | phytotoxicity rating IPOHE ([19]; 63 g ai/ha): 100 | phytotoxicity rating IPOHE ([19]; 250 g ai/ha): 100 | phytotoxicity rating RICE (crop damage) ([20]; 63 g ai/ha): 30 | phytotoxicity rating RICE (crop damage) ([20]; 250 g ai/ha): 80 | phytotoxicity rating CORN (crop damage) ([21]; 63 g ai/ha): 0 | phytotoxicity rating CORN (crop damage) ([21]; 250 g ai/ha): 15 | phytotoxicity rating RICE ([22]; 63 g ai/ha): 60 | phytotoxicity rating RICE ([22]; 250 g ai/ha): 70 | phytotoxicity rating CORN ([23]; 63 g ai/ha): 35 | phytotoxicity rating CORN ([23]; 250 g ai/ha): 40

Cn1c(C(F)(F)F)cc(=O)n(-c2c(F)cc(OC(F)F)cc2NC(=O)c2ccc3ccccc3c2)c1=O [2-148]
phytotoxicity rating AMARE ([1]; 63 g ai/ha): 100 | phytotoxicity rating AMARE ([1]; 250 g ai/ha): 100 | phytotoxicity rating CHEAL ([2]; 63 g ai/ha): 100 | phytotoxicity rating CHEAL ([2]; 250 g ai/ha): 100 | phytotoxicity rating CASOB ([3]; 63 g ai/ha): 50 | phytotoxicity rating CASOB ([3]; 250 g ai/ha): 95 | phytotoxicity rating SORHA ([4]; 63 g ai/ha): 0 | phytotoxicity rating SORHA ([4]; 250 g ai/ha): 30 | phytotoxicity rating ECHCG ([5]; 63 g ai/ha): 90 | phytotoxicity rating ECHCG ([5]; 250 g ai/ha): 100 | phytotoxicity rating ABUTH ([6]; 63 g ai/ha): 100 | phytotoxicity rating ABUTH ([6]; 250 g ai/ha): 100 | phytotoxicity rating DIGSA ([7]; 63 g ai/ha): 95 | phytotoxicity rating DIGSA ([7]; 250 g ai/ha): 100 | phytotoxicity rating SETVI ([8]; 63 g ai/ha): 80 | phytotoxicity rating SETVI ([8]; 250 g ai/ha): 95 | phytotoxicity rating AMBEL ([9]; 63 g ai/ha): 0 | phytotoxicity rating AMBEL ([9]; 250 g ai/ha): 100 | phytotoxicity rating IPOHE ([10]; 63 g ai/ha): 50 | phytotoxicity rating IPOHE ([10]; 250 g ai/ha): 99 | CHEAL phytotoxicity rating ([11]; 63 g ai/ha): 100 | CHEAL phytotoxicity rating ([11]; 250 g ai/ha): 100 | CASOB phytotoxicity rating ([12]; 63 g ai/ha): 95 | CASOB phytotoxicity rating ([12]; 250 g ai/ha): 100 | AMARE phytotoxicity rating ([13]; 63 g ai/ha): 100 | AMARE phytotoxicity rating ([13]; 250 g ai/ha): 90 | SORHA phytotoxicity rating ([14]; 63 g ai/ha): 0 | SORHA phytotoxicity rating ([14]; 250 g ai/ha): 10 | ECHCG phytotoxicity rating ([15]; 63 g ai/ha): 50 | ECHCG phytotoxicity rating ([15]; 250 g ai/ha): 20 | ABUTH phytotoxicity rating ([16]; 63 g ai/ha): 100 | ABUTH phytotoxicity rating ([16]; 250 g ai/ha): 100 | DIGSA phytotoxicity rating ([17]; 63 g ai/ha): 40 | DIGSA phytotoxicity rating ([17]; 250 g ai/ha): 40 | SETVI phytotoxicity rating ([18]; 63 g ai/ha): 50 | SETVI phytotoxicity rating ([18]; 250 g ai/ha): 40 | IPOHE phytotoxicity rating ([19]; 63 g ai/ha): 80 | IPOHE phytotoxicity rating ([19]; 250 g ai/ha): 90 | phytotoxicity rating RICE (crop damage) ([20]; 63 g ai/ha): 0 | phytotoxicity rating RICE (crop damage) ([20]; 250 g ai/ha): 60 | phytotoxicity rating CORN (crop damage) ([21]; 63 g ai/ha): 0 | phytotoxicity rating CORN (crop damage) ([21]; 250 g ai/ha): 0 | RICE phytotoxicity rating (crop damage) ([22]; 63 g ai/ha): 0 | RICE phytotoxicity rating (crop damage) ([22]; 250 g ai/ha): 10 | CORN phytotoxicity rating (crop damage) ([23]; 63 g ai/ha): 25 | CORN phytotoxicity rating (crop damage) ([23]; 250 g ai/ha): 30
